Our source for the IC50 values is patent publication US8299070B2, “Indole compounds and pharmaceutical use thereof” (Japan Tobacco Inc., priority 2009, dated 2012).

This assay has as its target T1, hITK enzyme (FLAG-tagged full-length hITK) (Homo sapiens, UniProt Q08881).
T1 construct: strongly expressing FLAG-tagged full-length hITK in Sf9 cells; FLAG; made in house; host or cells: Sf9 insect cells (ITK); Escherichia coli (GST-SLP76 substrate)
T1 sequence (Q08881 1-620): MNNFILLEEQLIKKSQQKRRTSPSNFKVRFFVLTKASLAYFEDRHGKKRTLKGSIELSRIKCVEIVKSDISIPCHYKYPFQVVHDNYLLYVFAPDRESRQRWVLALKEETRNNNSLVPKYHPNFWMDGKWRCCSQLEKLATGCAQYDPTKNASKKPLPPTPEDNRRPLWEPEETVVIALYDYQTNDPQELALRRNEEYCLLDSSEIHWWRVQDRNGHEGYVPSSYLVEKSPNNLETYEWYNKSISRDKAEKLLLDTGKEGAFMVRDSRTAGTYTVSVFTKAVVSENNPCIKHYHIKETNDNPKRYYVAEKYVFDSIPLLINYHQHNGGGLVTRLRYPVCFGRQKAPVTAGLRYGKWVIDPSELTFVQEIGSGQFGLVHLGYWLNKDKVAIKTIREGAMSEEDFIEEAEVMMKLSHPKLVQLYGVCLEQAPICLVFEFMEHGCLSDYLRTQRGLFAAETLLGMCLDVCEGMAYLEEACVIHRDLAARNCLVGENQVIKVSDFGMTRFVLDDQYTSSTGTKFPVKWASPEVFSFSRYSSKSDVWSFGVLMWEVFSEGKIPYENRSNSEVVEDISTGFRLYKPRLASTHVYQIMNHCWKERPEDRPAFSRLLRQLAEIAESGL
The assay is described as follows: ITK inhibitory activity (HTRF kinase assay, biotinylated GST-SLP76 substrate). The format is biochemical. The note with it: IC50 calculated from the 2 test compound concentrations sandwiching 50% ITK inhibitory rate. A digest of the protocol: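 Sf9-expressed hITK (50 ng/mL enzyme solution) reacted 10 min at RT in MOPS pH 7.0, 10 mmol/L MgCl2, 1 mmol/L DTT with E. coli SLP76 aa95–175 substrate; substrate solution held 100 µmol/L ATP (6 µmol/L for selected compounds). HTRF 665/620 ratio, blank-corrected; IC50 interpolated between two concentrations bracketing 50% inhibition.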
As for `CCN(C(=O)CN1CCCCCC1=O)c1ccc2cc(-c3n[nH]c4c3CCC(C)(C)C4)[nH]c2c1` [Example 270], the IC50 is 2 nM. As to `CCN(C(=O)CN1C(=O)COC[C@@H]1C)c1ccc2cc(-c3n[nH]c4c3CCC(C)(C)C4)[nH]c2c1` [Example 271], the IC50 is 3 nM. Take `COCCN(C(=O)CN1C(=O)COC[C@@H]1C)c1ccc2cc(-c3n[nH]c4c3CCC(C)(C)C4)[nH]c2c1` [Example 272]: the 50% inhibitory concentration (IC50) was 3 nM. With `CCN(C(=O)CC1CCC(OC)CC1)c1ccc2cc(-c3n[nH]c4c3CCC(C)(C)C4)[nH]c2c1` (centres unmarked) [Example 273], the IC50 was 11 nM. The same measure for `COCCN(C(=O)CC1CCC(OC)CC1)c1ccc2cc(-c3n[nH]c4c3CCC(C)(C)C4)[nH]c2c1` (centres unmarked) [Example 274]: 9 nM; for `CCN(C(=O)[C@H](C)N1CCOCC1)c1ccc2cc(-c3n[nH]c4c3CCC(C)(C)C4)[nH]c2c1` [Example 275]: 2 nM; for `COCCN(C(=O)[C@H](C)N1CCOCC1)c1ccc2cc(-c3n[nH]c4c3CCC(C)(C)C4)[nH]c2c1` [Example 276]: 4 nM. With `CCN(C(=O)CN1CC(C)(C)OCC1=O)c1ccc2cc(-c3n[nH]c4c3CCC(C)(C)C4)[nH]c2c1` [Example 277], the concentration for half-maximal inhibition (IC50) is 1 nM. Then `COCCN(C(=O)CN1CC(C)(C)OCC1=O)c1ccc2cc(-c3n[nH]c4c3CCC(C)(C)C4)[nH]c2c1` [Example 278], with 1 nM; and `CCN(C(=O)CN1C[C@H](C)OCC1=O)c1ccc2cc(-c3n[nH]c4c3CCC(C)(C)C4)[nH]c2c1` [Example 279], with less than 1 nM.

With `COCCN(C(=O)CN1C[C@H](C)OCC1=O)c1ccc2cc(-c3n[nH]c4c3CCC(C)(C)C4)[nH]c2c1` [Example 280], the IC50 is 2 nM. For the compound `COCCN(C(=O)CN1CCCCCC1=O)c1ccc2cc(-c3n[nH]c4c3CCC(C)(C)C4)[nH]c2c1` [Example 281], the half-inhibitory concentration (IC50) was 1 nM. Take `CCN(C(=O)CN1C[C@@H](C)OCC1=O)c1ccc2cc(-c3n[nH]c4c3CCC(C)(C)C4)[nH]c2c1` [Example 282]: the concentration for half-maximal inhibition (IC50) was 2 nM. For `COCCN(C(=O)CN1C[C@@H](C)OCC1=O)c1ccc2cc(-c3n[nH]c4c3CCC(C)(C)C4)[nH]c2c1` [Example 283], the IC50 was 2 nM. Consider `CCN(C(=O)CN1CCC(C)(C)C1=O)c1ccc2cc(-c3n[nH]c4c3CCC(C)(C)C4)[nH]c2c1` [Example 284], for which the IC50 is 1 nM. Turning to `COCCN(C(=O)CN1CCC(C)(C)C1=O)c1ccc2cc(-c3n[nH]c4c3CCC(C)(C)C4)[nH]c2c1` [Example 285], the IC50 is 2 nM. In the case of `COCCN(C(=O)CN1CCOCC1=O)c1ccc2cc(-c3n[nH]c4c3CCC(C)(C)C4)[nH]c2c1` [Example 286], the IC50 was 2 nM. On to `COCCN(C(=O)CN1CCCCC1=O)c1ccc2cc(-c3n[nH]c4c3CCC(C)(C)C4)[nH]c2c1` [Example 287], for which the IC50 is 1 nM. Take `CCN(C(=O)CN1CCOCC1=O)c1ccc2cc(-c3n[nH]c4c3CCC(C)(C)C4)[nH]c2c1` [Example 288]: the IC50 was 1 nM. For `CCN(C(=O)CN1CCCCC1=O)c1ccc2cc(-c3n[nH]c4c3CCC(C)(C)C4)[nH]c2c1` [Example 289], the IC50 is less than 1 nM. As for `CCN(C(=O)CC(C)(C)O)c1ccc2cc(-c3n[nH]c4c3CCC(C)(C)C4)[nH]c2c1` [Example 290], the IC50 was 8 nM. In the case of `CCN(C(=O)CN(C)C(C)=O)c1ccc2cc(-c3n[nH]c4c3CCC(C)(C)C4)[nH]c2c1` [Example 291], the concentration for half-maximal inhibition (IC50) is 1 nM. For the compound `CCC(=O)N(C)CC(=O)N(CC)c1ccc2cc(-c3n[nH]c4c3CCC(C)(C)C4)[nH]c2c1` [Example 292], the IC50 was 2 nM. The same measure for `CC1(C)CCc2c(-c3cc4cc(C(=O)Nc5ccccc5)ccc4[nH]3)n[nH]c2C1` [Example 293]: 263 nM; for `CNC(=O)c1ccc2[nH]c(-c3n[nH]c4c3CCC(C)(C)C4)cc2c1` [Example 294]: 51 nM; for `CN(C(=O)c1ccc2[nH]c(-c3n[nH]c4c3CCC(C)(C)C4)cc2c1)c1ccccc1` [Example 295]: 138 nM. Take `CN(C)C(=O)c1ccc2[nH]c(-c3n[nH]c4c3CCC(C)(C)C4)cc2c1` [Example 296]: the IC50 was 58 nM. Turning to `CC1(C)CCc2c(-c3cc4cc(C(N)=O)ccc4[nH]3)n[nH]c2C1` [Example 297], the IC50 is 48 nM.

On to `CC1(C)CCc2c(-c3cc4cc(C(=O)N5CCOCC5)ccc4[nH]3)n[nH]c2C1` [Example 298], for which the IC50 was 44 nM. The same measure for `CC(NC(=O)c1ccc2[nH]c(-c3n[nH]c4c3CCC(C)(C)C4)cc2c1)C(C)(C)C` (centres unmarked) [Example 299]: 74 nM; for `CC(N(C)C(=O)c1ccc2[nH]c(-c3n[nH]c4c3CCC(C)(C)C4)cc2c1)C(C)(C)C` (centres unmarked) [Example 300]: 221 nM.

For the compound `CC1(C)CCc2c(-c3cc4cc(C(=O)N5CCCC(O)C5)ccc4[nH]3)n[nH]c2C1` (centres unmarked) [Example 301], the IC50 was 37 nM. Consider `CC1(C)CCc2c(-c3cc4cc(C(=O)N5CCC(O)CC5)ccc4[nH]3)n[nH]c2C1` [Example 302], for which the 50% inhibitory concentration (IC50) is 39 nM. The same measure for `CC1(C)CCc2c(-c3cc4cc(C(=O)NCCO)ccc4[nH]3)n[nH]c2C1` [Example 303]: 33 nM. As to `CN(CCO)C(=O)c1ccc2[nH]c(-c3n[nH]c4c3CCC(C)(C)C4)cc2c1` [Example 304], the IC50 was 27 nM.

Regarding `COC(=O)CNC(=O)c1ccc2[nH]c(-c3n[nH]c4c3CCC(C)(C)C4)cc2c1` [Example 305], the IC50 was 13 nM. `CC1(C)CCc2c(-c3cc4cc(C(=O)NCC(=O)O)ccc4[nH]3)n[nH]c2C1` [Example 306]: the IC50 was 27 nM. On to `CC(C)OCCNC(=O)c1ccc2[nH]c(-c3n[nH]c4c3CCC(C)(C)C4)cc2c1` [Example 307], for which the IC50 was 61 nM. Take `CCCOCCNC(=O)c1ccc2[nH]c(-c3n[nH]c4c3CCC(C)(C)C4)cc2c1` [Example 308]: the IC50 is 49 nM.

In the case of `CC1(C)CCc2c(-c3cc4cc(C(=O)NCCOc5ccccc5)ccc4[nH]3)n[nH]c2C1` [Example 309], the IC50 was 102 nM. Then `COCCNC(=O)c1ccc2[nH]c(-c3n[nH]c4c3CCC(C)(C)C4)cc2c1` [Example 310], with 47 nM. `COC(=O)CN(C)C(=O)c1ccc2[nH]c(-c3n[nH]c4c3CCC(C)(C)C4)cc2c1` [Example 311]: the IC50 was 32 nM. With `CN(CC(=O)O)C(=O)c1ccc2[nH]c(-c3n[nH]c4c3CCC(C)(C)C4)cc2c1` [Example 312], the IC50 was 27 nM. `COCCN(C)C(=O)c1ccc2[nH]c(-c3n[nH]c4c3CCC(C)(C)C4)cc2c1` [Example 313]: the IC50 is 47 nM. In the case of `CN(Cc1ccccc1)C(=O)c1ccc2[nH]c(-c3n[nH]c4c3CCC(C)(C)C4)cc2c1` [Example 314], the IC50 was 143 nM.

In the case of `CC1(C)CCc2c(-c3cc4cc(C(=O)NCc5ccccc5)ccc4[nH]3)n[nH]c2C1` [Example 315], the IC50 was 60 nM. The same measure for `CC1(C)CCc2c(-c3cc4cc(C(=O)NCc5nccs5)ccc4[nH]3)n[nH]c2C1` [Example 316]: 47 nM; for `CC1(C)CCc2c(-c3cc4cc(C(=O)NCc5nnn[nH]5)ccc4[nH]3)n[nH]c2C1` [Example 317]: 21 nM; for `CC1(C)CCc2c(-c3cc4cc(C(=O)NCc5ccoc5)ccc4[nH]3)n[nH]c2C1` [Example 318]: 45 nM. `Cn1cccc1CNC(=O)c1ccc2[nH]c(-c3n[nH]c4c3CCC(C)(C)C4)cc2c1` [Example 319]: the IC50 was 46 nM. Consider `CC1(C)CCc2c(-c3cc4cc(C(=O)NC(C)(C)CO)ccc4[nH]3)n[nH]c2C1` [Example 320], for which the IC50 was 49 nM. Then `CON(C)C(=O)c1ccc2[nH]c(-c3n[nH]c4c3CCC(C)(C)C4)cc2c1` [Example 321], with 48 nM.

With `CC1(C)CCc2c(-c3cc4cc(C(=O)NCCN5CCOCC5)ccc4[nH]3)n[nH]c2C1` [Example 322], the 50% inhibitory concentration (IC50) was 41 nM. Consider `CN(C)CCNC(=O)c1ccc2[nH]c(-c3n[nH]c4c3CCC(C)(C)C4)cc2c1` [Example 323], for which the IC50 was 34 nM. The same measure for `CC1(C)CCc2c(-c3cc4cc(C(=O)Nc5nnc(O)s5)ccc4[nH]3)n[nH]c2C1` [Example 324]: 140 nM. Consider `COc1nnc(NC(=O)c2ccc3[nH]c(-c4n[nH]c5c4CCC(C)(C)C5)cc3c2)s1` [Example 325], for which the IC50 is 246 nM.

With `CC1(C)CCc2c(-c3cc4cc(C(=O)NC(C)(C)C(=O)O)ccc4[nH]3)n[nH]c2C1` [Example 326], the IC50 was 42 nM. Consider `CC1(C)CCc2c(-c3cc4cc(C(=O)NC(C)(C)C(=O)OC(C)(C)C)ccc4[nH]3)n[nH]c2C1` [Example 327], for which the IC50 was 132 nM. On to `CC1(C)CCc2c(-c3cc4cc(C(=O)NC(CO)CO)ccc4[nH]3)n[nH]c2C1` [Example 328], for which the half-inhibitory concentration (IC50) was 26 nM.

One may read the IC50 as the concentration at which inhibition is half-maximal.
